Test results: US8247613B2, “Methods and compositions for the synergistic activation of latent HIV” (The J. David Gladstone Institutes, priority 2006, dated 2012)

Experiments:
[1] = test system: J-Lat6.3kRed2 cells; test: Cell viability assay (flow cytometry light scatter), J-Lat6.3kRed2 cells; type: cell-based
Protocol: (§1) Following stimulation, cells were cultured for 16 hours at 37° C. 90% humidity, 5% CO2. Cells were then analyzed by flow cytometry for viability.
(§2) Cells were scored as viable if they were detected in a characteristically “live” region of light scatter and defraction as measured by flow cytometry.
(§3) As described herein, it is known in the art that high concentrations of prostratin exert some toxic effects on cells. Thus, using the same experimental set-up as described in Example 2, above, cell viability was determined. Cell viability were quantitated as described above. Using J-Lat 6.3 cells and 8.4 T-cells, it was observed that 2 μM prostratin induced cell death in about 50% of the cells. […] In this experiment, cells were incubated with prostratin for about 20 hours, whereas J-Lat 6.3 cells and 8.4 T-cells (in FIGS. 2A and 2B) were incubated with prostratin for 36 hours.
As described in Example 3 for TSA, the effect of valproic acid on blocking prostratin-induced cell death was analyzed using the same experimental set-up as described in Example 4.

[2] = cited from earlier work
[3] = test system: latent HIV expression in J-Lat6.3kRed2 cells; type: cell-based
Protocol: In a similar experiment, J-Lat6.3kRed2 cells, a modified cell line derived from J-Lat6.3 containing an integrated kB-DsRed2 reporter, was used. J-Lat6.3kRed2 cells were counted and adjusted to 1×10^6 cells/ml. 80 μl aliquots were pipetted in a 96-well u-bottomed plate. Two-fold serial dilutions of 4, 2, and 1 μM trichostatin A (TSA) were made and added to the cells at final concentrations of 400 nM, 200 nM, and 100 nM, respectively. Three-fold serial dilutions of 100, 33, 11, 3.7 μM prostratin were made and added to cells at final concentrations of 10 μM, 3.3 μM, 1.1 μM, and 0.37 μM (0.4 μM in FIG. 1C), respectively. Samples were mixed by pipetting, returned to a 37° C. incubator with 5% CO2 and 90% humidity for 20 hours, HIV-LTR-driven expression of GFP was assessed by flow cytometry as described above.
In order to test a possible synergistic effect of additional histone deacetylase inhibitors, the effect of valproic acid in combination with prostratin was analyzed. J-Lat6.3kRed2 cells were adjusted to 1×10^6 cells/ml. 80 μl cell aliquots were pipetted in a 96-well u-bottomed plate. […] HIV-LTR-driven expression of GFP was assessed by flow cytometry as described above.

[4] = test system: latent HIV expression in J-Lat 6.3 cells; test: HIV-LTR-driven expression of GFP (flow cytometry) in J-Lat 6.3 cells; type: cell-based; details: 16 hours; for activation of latent HIV expression (GFP-positive cells): J-Lat 6.3 cells
Protocol: (§4) J-Lat 6.3, J-Lat 8.4 T-cells, and J-Lat 9.2 cells are Jurkat T cell lines containing integrated but transcriptionally latent HIV proviruses. These J-Lat cells contain wild-type Tat and TAR and appear to be highly representative of the latently infected cells present in vivo (Williams et al., 2004, J Biol Chem 279(40):42008-42017).
(§5) J-Lat 6.3 T cells, J-Lat 8.4 T-cells and J-Lat 9.2 T cells were obtained from Jordan et al., (Jordan et al., 2003, EMBO J 22(8):1868-1877). J-Lat cells were cultured in RPMI supplemented with 10% fetal calf serum (FCS) and penicillin/streptomycin and L-glutamine described (Williams et al., 2004, J Biol Chem 279(40):42008-42017; Williams et al., 2006, EMBO J 25:139-149).
(§6) The J-Lat T-cell clones used herein are infected with full-length HIV proviruses and contain the Aequorea victoria green fluorescent protein (GFP) gene in lieu of Net thus permitting epifluorescence monitoring of viral transcriptional activity. Under basal conditions, little or no GFP expression is detected; however, transcriptional activation of the latent provirus leads to GFP expression, which can be detected at the single-cell level by flow cytometry. Flow cytometry analysis and FACS was essentially performed as described (Williams et al., 2004, J Biol Chem 279(40):42008-42017).
(§7) Cells were analyzed for GFP-fluorescence and general viability characteristics on a FACSCalibur flow cytometer (Becton Dickinson). Data were analyzed with FlowJo (Treesoft) flow cytometry analysis software.
(§8) J-Lat 6.3 and 8.4 T-cells cultured in RPMI supplemented with 10% fetal calf serum (FCS) and penicillin/streptomycin were counted and adjusted to 1×10^6 cells/ml. 80 μl aliquots of J-Lat 6.3 and 8.4 T-cells, respectively, were pipetted in a 96-well u-bottomed plate. […] Then HIV-LTR-driven expression of GFP was assessed by flow cytometry using a Beckton Dickenson FACScalibur as described above. […] Cells with greater GFP fluorescence than a non-GFP expressing Jurkat control cells were considered GFP-positive.

[5] = test system: J-Lat 6.3 cells; test: Cell viability assay (flow cytometry light scatter), J-Lat 6.3 cells; type: cell-based
Protocol: as §1, §2, §3

[6] = test system: latent HIV expression in J-Lat 8.4 T-cells; test: HIV-LTR-driven expression of GFP (flow cytometry) in J-Lat 8.4 T-cells; type: cell-based; details: 16 hours; for activation of latent HIV expression (GFP-positive cells): J-Lat 8.4 T-cells
Protocol: as §4, §5, §6, §7, §8

[7] = test system: latent HIV expression in J-Lat 6.3 cells; test: Tat transfection assay, latent HIV-driven GFP expression in J-Lat 6.3 cells; type: cell-based; details: for effect on Tat-induced latent HIV-driven expression of GFP: coadministration with Tat (FLAG-Tat transfected cells), 16 hours, J-Lat 6.3 cells (FIG. 5)
Protocol: 10^6 J-Lat 6.3 cells cultured in RPMI+10% fetal calf serum (FCS) and penicillin/streptomycin were pelleted by centrifugation and resuspended in 0.4 mL RPMI without serum. Cell suspension was mixed with 1 μg of pMACS-kk H2kk expression vector DNA (Miltenyi), and 10 μg of pCMV4 (Andersson et al., 1989, J Biol Chem 264 (14):8222-8229), or 10 μg pCMV4-FLAG-Tat expression vector (gift of Eric Verdin), transferred to a 0.4 cm gap electroporation cuvette (Stratagene), and electroporated at 975 μF, […] for ˜25×10^−3 seconds. Electroporated cells were resuspended in 4 mL medium, and returned to cell culture for 48 hours. 90 μl aliquots of each sample were distributed to U-bottomed 96-well plates and 10 μl of 200 ng/mL TNF-α (Biosource), 10 μl of 1 mM Trichostatin A (Biomol), or 10 μl of RPMI. For 30′-pulse TNF-α stimulation experiments, 10 μl of 200 ng/mL TNF-α was added to 90 μl cell suspension for 30 minutes, cells were transferred to a V-bottomed 96 well plate and centrifuged at […] for 3 minutes. Supernatant was removed and replaced, and procedure was repeated 2×. Cells were resuspended in 100 μl fresh RPMI with 10% serum and penicillin/streptomycin. 16 hours after treatment, cells were pelleted by centrifugation, and resuspended in 50 μl PBS+1:100 dilution of streptavidin-conjugated anti-H2kk antibody. Samples were incubated 10 minutes, diluted in 200 μl PBS, pelleted by centrifugation, and supernatant removed. […] Samples were analyzed by flow cytometry using a Beckton Dickinson FACSCalibur. Cells were analyzed using FlowJo (TreeSoft) flow cytometry analysis software. Live cells were identified by characteristic light scatter and defraction and exclusively analyzed. Cells with APC fluorescence greater that untransfected cells stained with biotin-APC were considered to be H2kk-positive, and to have been successfully transfected. […]

[8] = test system: J-Lat 8.4 T-cells; test: Cell viability assay (flow cytometry light scatter), J-Lat 8.4 T-cells; type: cell-based
Protocol: as §1, §2, §3

[9] = test system: latent HIV expression in J-Lat 9.2 cells; test: Tat transfection assay, latent HIV-driven GFP expression in J-Lat 9.2 cells; type: cell-based; details: FLAG-Tat transfected J-Lat 9.2 cells (FIG. 6); result similar to Example 6
[10] = concentration of >500 nM for more than 2 days; cited from earlier work
[11] = test system: latent HIV expression; details: more potent than prostratin; cited from earlier work
[12] = co-administration of 100 nM TSA with 2 μM prostratin

In the case of `CCCC(CCC)C(=O)O` [valproic acid, 2-propylpentanoic acid], the “effect on prostratin-induced cell death” value ([1]; valproic acid at all tested concentrations (0.3-3 mM), prostratin 10 μM, J-Lat6.3kRed2 cells (FIG. 4)) is listed as “blocked prostratin-induced cell death”, the “time of peak serum levels” value ([2]; after a single oral dose) is listed as 1 to 4 h and the serum half-life ([2]; in vivo) is listed as 6 to 16 h. For the same molecule, the “absorption after oral administration” value ([2]; oral) was “rapidly absorbed” and the “potentiation of the effect of prostratin on latent HIV expression” value (“potentiation of the effect of prostratin” for short) ([3]; valproic acid 0.3 mM with prostratin 0.37 μM, 18 hours, J-Lat6.3kRed2 cells (FIG. 3)) was 6-7 fold.
For `CC(/C=C/C(=O)NO)=C\[C@@H](C)C(=O)c1ccc(N(C)C)cc1` [TSA, [R-(E,E)]-7-[4-(Dimethylamino)phenyl]-N-hydroxy-4,6-dimethyl-7-oxo-2,4-heptadienamide], the “activation of latent HIV expression (GFP-positive cells)” value (shortened to “activation … (GFP-positive cells)”) ([4]; TSA 100 nM administered alone) was “no significant effect”, the “potentiation of the effect of prostratin” value ([4]; TSA 100 nM with prostratin 2 μM, J-Lat 6.3 cells (FIG. 1A)) was 5-6 fold and the “effect on prostratin-induced cell death” value [5, 12] was “almost completely inhibited”. For the same molecule, the “effect on prostratin-induced cell death” value ([1]; TSA with prostratin up to 10 μM, about 20 hours, J-Lat6.3kRed2 cells (FIG. 2C)) was “inhibited prostratin-induced cell death”, the “activation … (GFP-positive cells)” value ([6]; TSA 100 nM administered alone) was “no significant effect” and the “potentiation of the effect of prostratin” value ([6]; TSA 100 nM with prostratin 2 μM, J-Lat 8.4 T-cells (FIG. 1B)) was 6-7 fold. The “effect on Tat-induced latent HIV-driven expression of GFP” value [7] was “strongly enhanced”, the “synergistic effect on activation of latent HIV expression” value ([3]; 370 (400) nM TSA in combination with 0.4 μM prostratin, 20 hours, J-Lat6.3kRed2 cells (FIG. 1C)) was “about 16 fold” and the “effect on the activation of latent HIV expression” value ([3]; TSA 100-400 nM with prostratin 0.37-10 μM, 20 hours, J-Lat6.3kRed2 cells) was “drastic effect”. The “effect on prostratin-induced cell death” value [8, 12] was “almost completely inhibited” and the “activation of expression of latent HIV (GFP) together with Tat” value [9] was “Synergizes with Tat”.
For TNF-α, the “expression of latent HIV (GFP)” value ([7]; 30-minute pulse treatment of TNF-α, without Tat, J-Lat 6.3 cells) was “weak expression”, the “effect on Tat-induced latent HIV-driven expression of GFP” value [7] was “strongly enhanced” and the “activation of expression of latent HIV (GFP) together with Tat” value [9] was “Synergizes with Tat”.
In the case of `CC(=O)O[C@@]12C[C@@H](C)[C@@]3(O)[C@@H](C=C(CO)C[C@]4(O)C(=O)C(C)=C[C@@H]34)[C@@H]1C2(C)C` [prostratin, 12-deoxyphorbol 13-acetate], the “activation … (GFP-positive cells)” value ([4]; prostratin 2 μM alone) is listed as “induced the activation of latent HIV expression”, the “toxicity (growth arrest and cell death)” value [10] is listed as “substantial growth arrest and cell death” and the “prostratin-induced cell death (cells)” value ([5]; 2 μM prostratin, incubated 36 hours (FIG. 2A)) is listed as “about 50%”. The “activation … (GFP-positive cells)” value ([6]; prostratin 2 μM alone) was “induced the activation of latent HIV expression” and the “prostratin-induced cell death (cells)” value ([8]; 2 μM prostratin, incubated 36 hours (FIG. 2B)) was “about 50%”.
For `CC1=C[C@H]2[C@@]3(O)[C@H](C)C[C@]4(OC(=O)Cc5ccccc5)C([C@@H]3C=C(CO)C[C@]2(O)C1=O)C4(C)C` (stereo partly shown) [DPP, 12-deoxyphorbol 13-phenylacetate], the “potency relative to prostratin” value [11] is given as 20-40 fold.
